Legend:
[1] = Ex vivo metabolite studies (radio-HPLC of plasma and brain extracts); assay type: in vivo, CD1 mice; conditions: mice
Protocol: [^18F]1 and [^18F]2 (100 to 150 MBq, 250 to 450 GBq/μmol in 150 μL NaCl 0.9%/10% EtOH) were injected via the tail vein in CD1 male mice (10 to 12 weeks old, 20 to 25 g). Blood and urine samples were obtained at 30 and 60 min p.i. (n = 3 per time point). Twofold extractions of plasma and brain samples (n = 3) were performed using ice-cold MeCN according to the standard protocol established in our group (see [47, 48]). Briefly, plasma samples were obtained by centrifugation of the blood at 4,000×g at 4°C for 10 min, and brain samples were homogenized in ice-cold 50 mM Tris–HCl (pH = 7.4). The samples were vortexed, incubated on ice, and centrifuged at 10,000×g for 3 min. Supernatants were collected, and the precipitates were re-dissolved in ice-cold MeCN for the second extraction. The supernatants from the two extractions were combined, concentrated under a gentle argon stream at 65°C, and analyzed by radio-TLC and gradient analytical HPLC (see ‘Radiochemistry’ section). Aliquots from each extraction supernatant and the precipitates were also taken and quantified by γ counting (Wallac Wizard 1470, Perkin Elmer Inc., Waltham, MA, USA) along with the respective aliquots of intact plasma samples and brain homogenates. A moderate recovery of radioactivity was obtained from plasma samples and brain homogenates (60% to 70%). Radiometabolites of [^18F]17 in the plasma, spleen, and brain were assessed at 30 and 60 min p.i.

CB2R = CB2R (Mus musculus, UniProt P47936); design: species or system female CD1 mice; conditions: female, CD1, mouse, in vivo
Protocol: (§1) Female CD1 mice (10 to 12 weeks old, 20 to 25 g) received an injection of 300 to 400 kBq of [^18F]1 or [^18F]2 with specific activities of >450 GBq/μmol in 200 μL of 0.9% NaCl/10% EtOH into the tail vein. The animals were anesthetized (CO2/O2 mixture) for blood and urine sampling and euthanized by luxation of the cervical spine at 5, 30, and 60 min after injection (p.i.) (n = 2 to 5 per time). The organs of interest were removed and weighed, and the activities were measured by γ counting using a calibrated γ counter Wallac Wizard 1470 (Perkin Elmer Inc., Waltham, MA, USA). The percentage of injected dose per gram of wet tissue (% ID/g wet weight) was calculated.
(3 mg/kg i.p. in 0.9% saline, 10 min before the injection of the radiotracer) at 60 min p.i. (n = 2 to 5). The unpaired two-tailed t test was used to compare the results between the groups. We considered differences to be significant at a p value <0.05.

[2] = Ex vivo biodistribution (organ distribution) in mice; conditions: i.v. 300 to 400 kBq, female CD1 mice
Protocol: as §1

[3] = In vitro radiochemical stability; assay type: physicochemical; conditions: 40°C, after 30 min of incubation
Protocol: In vitro radiochemical stabilities of [^18F]1 and [^18F]2 were investigated in 0.9% NaCl solution, Dulbecco’s phosphate buffer, 0.01 M Tris–HCl (pH 7.4 at 21°C), and EtOH at 40°C for 90 min. Samples were taken at 15, 30, 60, and 90 min after incubation and analyzed by radio-TLC and radio-HPLC.

Chain of CB2R (P47936 whole entry): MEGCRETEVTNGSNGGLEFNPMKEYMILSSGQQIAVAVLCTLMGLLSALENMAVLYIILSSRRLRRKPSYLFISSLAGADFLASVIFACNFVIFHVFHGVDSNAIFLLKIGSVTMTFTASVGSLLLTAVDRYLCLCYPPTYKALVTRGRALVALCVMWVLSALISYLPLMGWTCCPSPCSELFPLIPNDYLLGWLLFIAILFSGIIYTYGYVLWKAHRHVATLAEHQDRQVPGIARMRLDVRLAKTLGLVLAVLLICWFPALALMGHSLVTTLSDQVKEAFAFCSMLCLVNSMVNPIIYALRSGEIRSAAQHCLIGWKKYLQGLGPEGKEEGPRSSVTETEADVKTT

## O=C(CCc1nc(-c2ccc(F)cc2Br)no1)Nc1ccc2c(c1)c1ccccc1n2CC[18F] [[^18F]1]
[1]; brain homogenate extract, 30 min p.i. of [18F]1 or [18F]2, radio-HPLC
  Percentage of total activity in brain samples, 30 min p.i.: 68%
[1]; brain homogenate extract, 60 min p.i. of [18F]1 or [18F]2, radio-HPLC
  Percentage of total activity in brain samples, 60 min p.i.: 35%
[1]; plasma, 30 min p.i. of [18F]1 or [18F]2, radio-HPLC
  Relative percentage of intact tracer and radiometabolites, Plasma 30 min p.i.: 60%
[1]; plasma, 60 min p.i. of [18F]1 or [18F]2, radio-HPLC
  Relative percentage of intact tracer and radiometabolites, Plasma 60 min p.i.: 7%
CB2R; 3 mg/kg, 1 h
  Radioactivity uptake, Adrenals, Blocking 60 min: 3.00 ± 0.64 % ID/g
  Radioactivity uptake, Bladder, Blocking 60 min: 5.07 ± 3.84 % ID/g
  Radioactivity uptake, Blood, Blocking 60 min: 1.43 ± 0.34 % ID/g
  Radioactivity uptake, Brain, Blocking 60 min: 0.66 ± 0.11 % ID/g
  Radioactivity uptake, Femur, Blocking 60 min: 1.49 ± 0.45 % ID/g
  Radioactivity uptake, Gonads, Blocking 60 min: 1.19 ± 0.30 % ID/g
  Radioactivity uptake, Heart, Blocking 60 min: 1.49 ± 0.29 % ID/g
  Radioactivity uptake, Kidney, Blocking 60 min: 1.74 ± 0.48 % ID/g
  Radioactivity uptake, Large intestine, Blocking 60 min: 1.63 ± 0.64 % ID/g
  Radioactivity uptake, Liver, Blocking 60 min: 4.22 ± 0.96 % ID/g
  Radioactivity uptake, Lung, Blocking 60 min: 1.47 ± 0.29 % ID/g
  Radioactivity uptake, Muscle, Blocking 60 min: 0.93 ± 0.23 % ID/g
  Radioactivity uptake, Pancreas, Blocking 60 min: 1.03 ± 0.26 % ID/g
  Radioactivity uptake, Plasma, Blocking 60 min: 1.87 ± 0.41 % ID/g
  Radioactivity uptake, Small intestine, Blocking 60 min: 19.39 ± 5.53 % ID/g
  Radioactivity uptake, Spleen, Blocking 60 min: 0.98 ± 0.21 % ID/g
  Radioactivity uptake, Stomach, Blocking 60 min: 1.84 ± 1.28 % ID/g
  Radioactivity uptake, Thymus, Blocking 60 min: 1.50 ± 0.35 % ID/g
CB2R; 60 min
  % control, Adrenals: 95 % control
  % control, Bladder: 155 % control
  % control, Blood: 74 % control
  % control, Brain: 72 % control
  % control, Femur: 81 % control
  % control, Gonads: 89 % control
  % control, Heart: 90 % control
  % control, Kidney: 106 % control
  % control, L. intestine: 106 % control
  % control, Liver: 80 % control
  % control, Lung: 83 % control
  % control, Muscle: 104 % control
  % control, Pancreas: 91 % control
  % control, Plasma: 75 % control
  % control, S. intestine: 88 % control
  % control, Spleen: 65 % control
  % control, Stomach: 68 % control
  % control, Thymus: 79 % control
[2]
  Radioactivity uptake, Adrenals, Control 5 min: 4.16 ± 6.23 % ID/g
  Radioactivity uptake, Adrenals, Control 30 min: 3.31 ± 0.99 % ID/g
  Radioactivity uptake, Adrenals, Control 60 min: 3.16 ± 1.25 % ID/g
  Radioactivity uptake, Bladder, Control 5 min: 2.23 ± 1.39 % ID/g
  Radioactivity uptake, Bladder, Control 30 min: 1.65 ± 0.43 % ID/g
  Radioactivity uptake, Bladder, Control 60 min: 3.27 ± 1.94 % ID/g
  Radioactivity uptake, Blood, Control 5 min: 1.94 ± 0.44 % ID/g
  Radioactivity uptake, Blood, Control 30 min: 1.44 ± 0.41 % ID/g
  Radioactivity uptake, Blood, Control 60 min: 1.94 ± 0.69 % ID/g
  Radioactivity uptake, Brain, Control 5 min: 1.31 ± 0.24 % ID/g
  Radioactivity uptake, Brain, Control 30 min: 0.76 ± 0.22 % ID/g
  Radioactivity uptake, Brain, Control 60 min: 0.92 ± 0.27 % ID/g
  Radioactivity uptake, Femur, Control 5 min: 2.00 ± 0.38 % ID/g
  Radioactivity uptake, Femur, Control 30 min: 1.37 ± 0.50 % ID/g
  Radioactivity uptake, Femur, Control 60 min: 1.84 ± 0.35 % ID/g
  Radioactivity uptake, Gonads, Control 5 min: 1.06 ± 0.94 % ID/g
  Radioactivity uptake, Gonads, Control 30 min: 1.02 ± 0.26 % ID/g
  Radioactivity uptake, Gonads, Control 60 min: 1.33 ± 0.50 % ID/g
  Radioactivity uptake, Heart, Control 5 min: 3.39 ± 0.45 % ID/g
  Radioactivity uptake, Heart, Control 30 min: 1.43 ± 0.47 % ID/g
  Radioactivity uptake, Heart, Control 60 min: 1.66 ± 0.37 % ID/g
  Radioactivity uptake, Kidney, Control 5 min: 13.40 ± 5.66 % ID/g
  Radioactivity uptake, Kidney, Control 30 min: 2.68 ± 0.37 % ID/g
  Radioactivity uptake, Kidney, Control 60 min: 1.65 ± 0.49 % ID/g
  Radioactivity uptake, Large intestine, Control 5 min: 1.91 ± 2.66 % ID/g
  Radioactivity uptake, Large intestine, Control 30 min: 3.24 ± 5.61 % ID/g
  Radioactivity uptake, Large intestine, Control 60 min: 1.54 ± 0.42 % ID/g
  Radioactivity uptake, Liver, Control 5 min: 11.00 ± 1.04 % ID/g
  Radioactivity uptake, Liver, Control 30 min: 4.38 ± 1.19 % ID/g
  Radioactivity uptake, Liver, Control 60 min: 5.29 ± 1.22 % ID/g
  Radioactivity uptake, Lung, Control 5 min: 3.68 ± 0.62 % ID/g
  Radioactivity uptake, Lung, Control 30 min: 1.65 ± 0.70 % ID/g
  Radioactivity uptake, Lung, Control 60 min: 1.77 ± 0.74 % ID/g
  Radioactivity uptake, Muscle, Control 5 min: 2.10 ± 0.33 % ID/g
  Radioactivity uptake, Muscle, Control 30 min: 1.02 ± 0.50 % ID/g
  Radioactivity uptake, Muscle, Control 60 min: 0.89 ± 0.19 % ID/g
  Radioactivity uptake, Pancreas, Control 5 min: 4.97 ± 0.62 % ID/g
  Radioactivity uptake, Pancreas, Control 30 min: 1.50 ± 0.74 % ID/g
  Radioactivity uptake, Pancreas, Control 60 min: 1.13 ± 0.11 % ID/g
  Radioactivity uptake, Plasma, Control 5 min: 2.52 ± 0.58 % ID/g
  Radioactivity uptake, Plasma, Control 30 min: 1.88 ± 0.58 % ID/g
  Radioactivity uptake, Plasma, Control 60 min: 2.50 ± 0.87 % ID/g
  Radioactivity uptake, Small intestine, Control 5 min: 4.36 ± 2.09 % ID/g
  Radioactivity uptake, Small intestine, Control 30 min: 10.51 ± 8.38 % ID/g
  Radioactivity uptake, Small intestine, Control 60 min: 22.03 ± 8.32 % ID/g
  Radioactivity uptake, Spleen, Control 5 min: 3.44 ± 0.77 % ID/g
  Radioactivity uptake, Spleen, Control 30 min: 1.46 ± 0.56 % ID/g
  Radioactivity uptake, Spleen, Control 60 min: 1.52 ± 0.62 % ID/g
  Radioactivity uptake, Stomach, Control 5 min: 2.05 ± 0.33 % ID/g
  Radioactivity uptake, Stomach, Control 30 min: 1.23 ± 0.36 % ID/g
  Radioactivity uptake, Stomach, Control 60 min: 2.70 ± 1.47 % ID/g
  Radioactivity uptake, Thymus, Control 5 min: 3.30 ± 0.58 % ID/g
  Radioactivity uptake, Thymus, Control 30 min: 1.57 ± 0.80 % ID/g
  Radioactivity uptake, Thymus, Control 60 min: 1.90 ± 0.98 % ID/g
[3]; 0.9% NaCl
  intact tracer: 95%
[3]; Dulbecco’s phosphate buffer
  intact tracer: 94%
[3]; EtOH
  intact tracer: 93%
[3]; Tris–HCl
  intact tracer: 89%
